{"source": "patent US12110270B2", "about": "“Systems and methods for generation of hyperpolarized materials” (NVISION IMAGING TECHNOLOGIES GMBH, priority 2021, dated 2024)", "origin": "cited, not measured here", "note": "Read-outs that look alike come from different tables or passages of the source.", "data": [{"smiles": "CC(=O)O", "note": "[acetic acid]", "values": [{"measurement": "maximal mole fraction in n-heptane", "setting": "14.8° C.", "result": 0.935}, {"measurement": "maximal mole fraction in n-heptane", "setting": "−29.2° C.", "result": 0.02}]}]}
